We go through four compounds from the NIST ThermoML archive (doi:10.1016/j.jct.2015.12.034).

This data set in a line: activity coefficient (dimensionless); of the first substance listed, at infinite dilution; xn = mol fraction of the nth substance listed. The following applies: 298.15 K; 238 kPa; Liquid; Chromatography; x1 = 0.

± gives the expanded uncertainty stated by the source.

Regarding `CCCCCCCC` [octane] + CC#N, the activity coefficient came to 52.3 ± 4.5.

For `CCCCCCCC` [octane] + CC(C)=O, the activity coefficient was 10.7 ± 0.9.

For the compound `Cc1ccccc1` [toluene] + CC#N, the activity coefficient was determined as 3.95 ± 0.34.

As for `Cc1ccccc1` [toluene] + CC(C)=O, the activity coefficient was 2.01 ± 0.17.
